Results published in patent publication US5037960A, “Inhibitor of protein synthesis, process for its isolation, its use and pharmaceutical compositions in which it is present” (priority 1986, dated 1991).

Tested on: protein synthesis (subcellular fractions of rat liver)
Assay type: biochemical
Settings: compared with native trichokirin
Text: The in vitro protocol uses appropriately complemented subcellular fractions of rat liver capable of incorporating ^14 C-phenylalanine in the presence of an artificial messenger RNA: polyuridylic acid.
The procedure employed for preparing the subcellular fractions and measuring the incorporation of ^14 C-phenylalanine is an adaptation of the method described in BBA 312, 608-615 (1973), using both a microsomal fraction and a cytosol fraction of the rat hepatocytes. The sample containing the trichokirin is introduced in the form of a solution appropriately diluted in a 50 mM tris-HCl buffer, pH 7.6, containing 0.2% of 2-mercaptoethanol and 15 micrograms/ml of bovine serum albumin. The count data are used to calculate, relative to a reference medium without inhibitor, the percentage inhibition of the incorporation of ^14 C-phenylalanine for each reaction medium.
The values obtained together make it possible to determine the concentration of trichokirin (or IC50) which inhibits the incorporation of ^14 C-phenylalanine by 50% under the experimental conditions.

“mercaptosuccinoyl-trichokirin [modified trichokirin]” was tested, and the “effect of the modification on activity” value was “does not cause a significant loss of activity”.
